Assay [1] relates to IL-6 secretion in BV-2 mouse microglia cells. The experiment in a line: IL-6 Secretion in BV-2 Cell (L18-MDP stimulated, ELISA). It counts as cell-based. The settings on record: BV-2 cells, 10 μg/ml L18-MDP, 24 hr. Here is the method: IL-6 Secretion in BV-2 Cell
BV-2 mouse microglia cells were kindly provided from Dr. Bae in Korea Institute of Science and Technology (KIST). BV-2 cells were thawed and suspended in Dulbecco's modified eagle medium (DMEM) supplemented with 10% fetal bovine serum (FBS) and 1% Penicillin/Streptomycin. Cells were seeded into 96 well plates at 2×10^4 cells/well and allowed to attach for 24 hr. On the day of the experiment, various concentration of FB compounds was treated, and cells were stimulated with 10 μg/ml L18-MDP. After 24 hr incubation, supernatant was collected for cytokine assay.
Absorbance at 450 nm was measured using SpectraMax i3X microplate reader (Molecular Device). Values of media-only wells were subtracted and % inhibition for each compound concentration relative to the DMSO/L18-MDP-treated controls (100%) was calculated. The IC50 values were calculated from a series of percent activity values using software as implemented in the GraphPad Prism 7 software and SigmaPlot 13.0.
Background: In an ELISA, binding on a coated surface is turned into a signal by an enzyme label.

Assay [2] has as its target His-tagged recombinant human ABL1 (Homo sapiens (Human), UniProt P00519). The assay is described as follows: c-Abl Kinase Assay (ADP-Glo). Format: biochemical. The settings on record: in vitro kinase activity, ATP 25 μM. Here is the method:
ADP-Glo assay kit was purchased from Promega. Magnesium chloride (MgCl2), bovine serum albumin (BSA), ethylene glycol-bis(β-aminoethyl ether)-N,N,N′,N′-tetraacetic acid (EGTA), tween-20, 1,4-dithiothreitol (DTT) and dimethyl sulfoxide (DMSO) were purchased from Sigma-Aldrich. HEPES buffer was purchased from Gibco. ABL1 kinase and Abltide were purchased from Signalchem.
c-Abl kinase activity was measured by Promega's ADP-Glo™ Assay. In this assay, His-tagged recombinant human ABL1 (0.25 ng/μl) is incubated with 5 μL of compounds (0.5% DMSO), 5 μL of Abltide (0.01 μg/μl) and 5 μL of ATP (25 μM) in buffer (50 mM HEPES, 7.5; 10 mM MgCl2; 1 mM EGTA; 0.05% BSA; 0.01% Tween-20; 2 mM DTT). The assay was started by incubating the reaction mixture in a 96-well plate at 30° C. for 30 min. After the incubation, 25 μL ADP-Glo reagent was added and the reaction was incubated at room temperature for 40-min to stop the reaction and degrade residual ATP. The ADP product was then converted to ATP by adding 50 μL per well of detection reagent. Luminescence was detected after 30-min room temperature incubation with the Molecular device I3X plate reader. The IC50 values were calculated from a series of percent inhibition values determined at a range of inhibitor concentration using software routines as implemented in the GraphPad Prism 7 software and Sigma Plot 13.0.
For orientation: ADP-Glo first removes unused ATP, then detects ADP through luciferase.

In assay [3] the target is GST-tagged recombinant human RIP2 (Homo sapiens (Human), UniProt O43353). The experiment in a line: RIP2 Kinase Assay (ADP-Glo). It counts as biochemical. The settings on record: in vitro kinase activity, ATP 25 μM.

pIC50: −log10 of the molar value.

GST-tagged recombinant human RIP2, sequence (O43353 whole entry): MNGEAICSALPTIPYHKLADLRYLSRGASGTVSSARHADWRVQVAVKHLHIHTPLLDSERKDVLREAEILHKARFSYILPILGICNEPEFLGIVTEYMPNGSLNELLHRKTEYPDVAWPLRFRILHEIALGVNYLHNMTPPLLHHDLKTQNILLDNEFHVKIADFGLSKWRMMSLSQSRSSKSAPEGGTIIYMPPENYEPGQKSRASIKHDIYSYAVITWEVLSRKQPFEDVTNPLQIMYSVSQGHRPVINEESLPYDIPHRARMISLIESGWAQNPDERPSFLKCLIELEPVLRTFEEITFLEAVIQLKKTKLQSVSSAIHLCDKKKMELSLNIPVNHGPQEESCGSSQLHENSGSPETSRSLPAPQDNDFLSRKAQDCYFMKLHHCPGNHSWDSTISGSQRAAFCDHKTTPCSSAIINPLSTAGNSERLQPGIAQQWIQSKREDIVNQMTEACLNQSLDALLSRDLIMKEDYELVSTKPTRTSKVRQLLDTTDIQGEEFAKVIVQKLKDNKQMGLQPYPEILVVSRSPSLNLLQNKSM
His-tagged recombinant human ABL1, sequence (P00519 whole entry): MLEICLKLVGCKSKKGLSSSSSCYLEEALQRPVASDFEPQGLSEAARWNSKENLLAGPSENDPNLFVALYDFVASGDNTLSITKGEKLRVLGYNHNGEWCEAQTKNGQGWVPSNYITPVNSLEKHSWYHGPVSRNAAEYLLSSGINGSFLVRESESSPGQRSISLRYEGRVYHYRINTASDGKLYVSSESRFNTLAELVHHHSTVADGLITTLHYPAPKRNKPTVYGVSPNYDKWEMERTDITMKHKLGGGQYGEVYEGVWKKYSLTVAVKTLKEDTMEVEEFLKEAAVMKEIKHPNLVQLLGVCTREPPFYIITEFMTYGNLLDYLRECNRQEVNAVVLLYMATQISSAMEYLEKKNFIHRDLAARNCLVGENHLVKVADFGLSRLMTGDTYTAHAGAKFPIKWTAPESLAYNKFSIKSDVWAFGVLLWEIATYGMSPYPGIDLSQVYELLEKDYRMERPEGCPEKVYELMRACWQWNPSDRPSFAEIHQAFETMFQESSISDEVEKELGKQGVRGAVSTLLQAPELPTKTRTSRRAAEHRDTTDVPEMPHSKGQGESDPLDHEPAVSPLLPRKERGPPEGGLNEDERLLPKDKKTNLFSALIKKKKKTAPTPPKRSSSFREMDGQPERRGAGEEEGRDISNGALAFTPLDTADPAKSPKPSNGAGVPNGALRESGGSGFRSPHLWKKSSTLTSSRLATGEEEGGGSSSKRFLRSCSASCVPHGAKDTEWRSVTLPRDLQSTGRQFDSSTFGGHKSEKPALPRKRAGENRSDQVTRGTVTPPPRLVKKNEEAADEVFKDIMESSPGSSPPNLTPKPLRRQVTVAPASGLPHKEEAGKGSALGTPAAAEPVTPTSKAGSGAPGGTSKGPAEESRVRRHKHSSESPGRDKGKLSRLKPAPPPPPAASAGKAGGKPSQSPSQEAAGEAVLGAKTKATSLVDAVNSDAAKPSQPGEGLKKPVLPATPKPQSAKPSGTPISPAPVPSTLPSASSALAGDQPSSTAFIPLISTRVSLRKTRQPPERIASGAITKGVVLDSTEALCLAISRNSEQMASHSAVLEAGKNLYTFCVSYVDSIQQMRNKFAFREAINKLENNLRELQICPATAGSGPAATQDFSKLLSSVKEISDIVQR

For orientation: pIC50 means the IC50 on a negative log10 scale, so that one unit is a factor of ten. With `Cc1c(F)cccc1-c1ccc2nc(N)c(C(=O)[C@@H]3C[C@@H]3F)n2c1` [Example 5], the pIC50 is 6.00 to 6.30 in assay [1], 7.00 to 9.00 in assay [2] and 7.00 to 9.00 in assay [3].

For `Cc1c(-c2ccc3nc(N)c(C(=O)[C@@H]4C[C@@H]4F)n3c2)cnc2[nH]ccc12` [Example 40], the results for the pIC50 in assay [1], in assay [2] and in assay [3] were 6.30 to 7.00, 7.00 to 9.00 and 7.00 to 9.00, respectively.

As for `Nc1nc2ccc(-c3ccc4[nH]ccc4c3)cn2c1C(=O)[C@@H]1C[C@@H]1F` [Example 51], the pIC50 is 6.30 to 7.00 in assay [1], 7.00 to 9.00 in assay [2] and 7.00 to 9.00 in assay [3].

In the case of `Nc1nc2ccc(-c3cccc4[nH]ccc34)cn2c1C(=O)[C@@H]1C[C@@H]1F` [Example 57], the figures for the pIC50 in assay [1], in assay [2] and in assay [3] were 6.30 to 7.00, 7.00 to 9.00 and 7.00 to 9.00, respectively.

For the molecule `Cc1c(F)cc2[nH]ncc2c1-c1ccc2nc(N)c(C(=O)[C@@H]3C[C@@H]3F)n2c1` [Example 60], the pIC50 in assay [1] is 7.00 to 9.00; in assay [2], 6.30 to 7.00; in assay [3], 7.00 to 9.00.

With `Cc1c(-c2ccc3nc(N)c(C(=O)[C@@H]4C[C@@H]4F)n3c2)ccc2[nH]ccc12` [Example 89, (2-amino-6-(4-methyl-1H-indol-5-yl)imidazo[1,2-a]pyridin-3-yl)((1S,2S)-2-fluorocyclopropyl)methanone], the results for the pIC50 in assay [1], in assay [2] and in assay [3] were 6.30 to 7.00, 7.00 to 9.00 and 7.00 to 9.00, respectively.

`Nc1nc2ccc(-c3ccnc4[nH]ccc34)cn2c1C(=O)[C@@H]1C[C@@H]1F` [Example 104]: the pIC50 in assay [1] is 6.30 to 7.00; in assay [2] it was 7.00 to 9.00; in assay [3], 7.00 to 9.00.

On to `Nc1nc2ccc(-c3c[nH]c4ccccc34)cn2c1C(=O)[C@@H]1C[C@@H]1F` [Example 105], for which the values for the pIC50 in assay [1], in assay [2] and in assay [3] were 6.30 to 7.00, 7.00 to 9.00 and 7.00 to 9.00, respectively.

Turning to `Nc1nc2ccc(-c3c[nH]c4ncccc34)cn2c1C(=O)[C@@H]1C[C@@H]1F` [Example 110], the pIC50 in assay [1] is 6.00 to 6.30; in assay [3] it was 7.00 to 9.00.

As to `Nc1nc2ccc(-c3cc(F)cc4[nH]ccc34)cn2c1C(=O)[C@@H]1C[C@@H]1F` [Example 113], the pIC50 in assay [1] is 6.30 to 7.00; in assay [2] it was 7.00 to 9.00; in assay [3], 7.00 to 9.00.

For `Cc1c(F)cc2[nH]ccc2c1-c1ccc2nc(N)c(C(=O)[C@@H]3C[C@@H]3F)n2c1` [Example 114], the pIC50 was 6.30 to 7.00 in assay [1], 7.00 to 9.00 in assay [2] and 7.00 to 9.00 in assay [3].

With `Nc1nc2ccc(-c3ccnc4ccccc34)cn2c1C(=O)[C@@H]1C[C@@H]1F` [Example 115], the results for the pIC50 in assay [1] and in assay [3] were 6.30 to 7.00 and 7.00 to 9.00, respectively.

On to `Nc1nn2ccc(-c3cccc4[nH]ccc34)cc2c1C(=O)C1CC1` [Example 152], for which the values for the pIC50 in assay [1] and in assay [3] were 6.30 to 7.00 and 7.00 to 9.00, respectively.

With `Cc1c(F)cc2[nH]ncc2c1-c1ccn2nc(N)c(C(=O)C3CC3)c2c1` [Example 153, (2-amino-5-(6-fluoro-5-methyl-1H-indazol-4-yl)pyrazolo[1,5-a]pyridin-3-yl)(cyclopropyl)methanone], the pIC50 was 6.00 to 6.30 in assay [1] and 7.00 to 9.00 in assay [3].

`Cc1c(F)cccc1-c1ccn2nc(N)c(C(=O)C3CC3)c2c1` [Example 154]: the pIC50 in assay [1] is less than 6.00; in assay [3], 7.00 to 9.00.

Values taken from US11744824B2, “2-amino-3-carbonyl imidazopyridine and pyrazolopyridine compounds” (1ST Biotherapeutics, Inc., priority 2020, dated 2023).
